Data on 2 compounds can be found in BindingDB's records for doi:10.1021/jm970161m (Warner-Lambert, 1997).

pIC50: −log10 of the molar value. Square brackets hold non-standard residues; d marks the D form. Peptide text beside a SMILES is read from it. NMeDip = CN[C@H](C(=O)O)C(c1ccccc1)c1ccccc1; Dip = N[C@H](C(=O)O)C(c1ccccc1)c1ccccc1; NMeI = CC[C@H](C)[C@H](NC)C(=O)O

The target of the test is Endothelin-1 receptor (Oryctolagus cuniculus). In words: Inhibition of binding to Endothelin A receptor of rabbit renal vascular smooth muscle cells.

As for `CC[C@H](C)[C@H](NC(=O)[C@H](CC(=O)O)NC(=O)[C@H](CC(C)C)NC(=O)[C@H](C(c1ccccc1)c1ccccc1)N(C)C(C)=O)C(=O)N[C@H](C(=O)N[C@@H](Cc1c[nH]c2ccccc12)C(=O)O)[C@@H](C)CC` (Ac-[NMeDip]LDIIW-OH), the pIC50 was 5.35.

As for `CC[C@H](C)[C@H](NC(=O)[C@H]([C@@H](C)CC)N(C)C(=O)[C@H](CC(=O)O)NC(=O)[C@H](CC(C)C)NC(=O)[C@@H](NC(C)=O)C(c1ccccc1)c1ccccc1)C(=O)N[C@@H](Cc1c[nH]c2ccccc12)C(=O)O` (Ac-[Dip]LD[NMeI]IW-OH), the negative-log IC50 (pIC50) was 6.15.
